Experimental data as given in US20230124862A1, “BISMUTH THIOL COMPOUNDS AND COMPOSITIONS AND METHODS OF TREATING MICROBIAL CO-INFECTIONS” (Microbion Corporation, priority 2020, published 2023).
In brackets after ≈: the same amount, converted by molar mass. Where two headings read alike, the source gives them in different places.

Tests used:
Haemophilus influenzae [1] = details: H. influenzae MMX 1224 (ATCC 49247), cited from earlier work
Haemophilus influenzae [2] = test: Broth microdilution MIC, Haemophilus influenzae clinical isolates; format: cell-based
[3] = system: Anaerobes (Bacteroides fragilis, Clostridium difficile); test: Agar dilution MIC (Example 11); format: cell-based; details: read-out: MIC
Protocol: The susceptibility of anaerobic bacteria was determined by agar dilution using Brucella Agar (BD/BBL; Lot No. 5237692) supplemented with 5 μg/mL hemin (Sigma, St. Louis, Mo.; Lot No. 108K1088), 1 μg/mL Vitamin K1 and 5% (v/v) laked sheep blood (Cleveland Scientific, Bath, Ohio; Lot No. 322799).
Agar Dilution MIC Testing (Anaerobic Bacteria and Gonococci): MIC values for anaerobic bacteria were determined using a reference agar dilution method as described by CLSI (6). Organisms were grown at 35° C. in the Bactron II Anaerobic Chamber (Shel Lab, Cornelius, Oreg.) for approximately 48 hr prior to the assay. Drug dilutions and drug-supplemented agar plates were prepared manually per CLSI (6). The plates were allowed to stand at room temperature for 1 hr to allow the agar surface to dry and pre-reduced for approximately 1 hr in the anaerobe chamber prior to inoculation. Each isolate was suspended to the equivalent of a 0.5 McFarland standard in Brucella broth using a turbidity meter (Dade Behring MicroScan, West Sacramento, Calif.). Each bacterial cell suspension was then diluted 1:10 in Brucella broth and transferred to wells in a stainless steel replicator block which was used to inoculate the test plates. The prongs on the replicator deliver approximately 1-2 μl of inoculum to an agar surface. The resulting inoculum spots contained approximately 1×10^5 CFU/spot. After the inoculum dried, the inoculated drug-supplemented agar plates and no drug growth control plates were incubated at 35° C. for 42-48 hr in the anaerobe chamber. The MIC was read per CLSI guidelines (6).

[4] = system: Anaerobes (Bacteroides fragilis, Clostridium difficile); details: cited from earlier work
[5] = system: Gram-negative organisms (P. aeruginosa, E. coli, A. baumannii, H. influenzae); details: P. aeruginosa ATCC 27853; cited from earlier work
[6] = system: Gram-negative organisms (P. aeruginosa, E. coli, A. baumannii, H. influenzae); test: Broth microdilution MIC with pulmonary surfactant (Survanta); format: cell-based
[7] = H. influenzae MMX 1224 (ATCC 49247)
[8] = Bacteroides fragilis, ATCC25285, B. fragilis MMX 123 (ATCC 25285), QC
[9] = C. difficile MMX 4381 (ATCC 700057), QC, CC^1
[10] = C. difficile MMX 5680 (NCTC 13336), ribotype 027, CC^1 MET^R
[11] = C. difficile MMX 5681 (NCTC 13307), ribotype 012, CC^R
[12] = C. difficile MMX 8272, ribotype 255, CC^1
[13] = C. difficile MMX 8279, ribotype 005, CC^R
[14] = C. difficile MMX 8281, ribotype 010, CC^R
[15] = C. difficile MMX 4381 (ATCC 700057)

CC1(C)S[C@@H]2[C@H](NC(=O)[C@H](N)c3ccccc3)C(=O)N2[C@H]1C(=O)O [AMP]
CLSI Quality Control Range (MIC) (Haemophilus influenzae [1]; in µg/mL): 2-8 | MIC (Haemophilus influenzae [2]; H. influenzae MMX 0797, BLNAR): 4 µg/mL (≈ 11.4 µM) | MIC (Haemophilus influenzae [2]; [7]): 2 µg/mL (≈ 5.72 µM) | MIC (Haemophilus influenzae [2]; H. influenzae MMX 1302): 0.25 µg/mL (≈ 0.715 µM) | MIC (Haemophilus influenzae [2]; H. influenzae MMX 1304): 0.25 µg/mL (≈ 0.715 µM) | MIC (Haemophilus influenzae [2]; H. influenzae MMX 1740): 4 µg/mL (≈ 11.4 µM) | MIC (Haemophilus influenzae [2]; H. influenzae MMX 1741): 4 µg/mL (≈ 11.4 µM) | MIC (Haemophilus influenzae [2]; H. influenzae MMX 2795, BLNAR): 4 µg/mL (≈ 11.4 µM) | MIC (Haemophilus influenzae [2]; H. influenzae MMX 2796, BLNAR): 2 µg/mL (≈ 5.72 µM) | MIC (Haemophilus influenzae [2]; H. influenzae MMX 2798, BLNAR): 4 µg/mL (≈ 11.4 µM) | MIC (Haemophilus influenzae [2]; H. influenzae MMX 2799, BLNAR): 4 µg/mL (≈ 11.4 µM) | MIC (Haemophilus influenzae [2]; H. influenzae MMX 5458): 0.12 µg/mL (≈ 0.343 µM) | MIC (Haemophilus influenzae [2]; H. influenzae MMX 5461): 0.5 µg/mL (≈ 1.43 µM) | MIC (Haemophilus influenzae [2]; H. influenzae MMX 5469): 4 µg/mL (≈ 11.4 µM) | MIC (Haemophilus influenzae [2]; H. influenzae MMX 5494): 0.12 µg/mL (≈ 0.343 µM) | MIC (Haemophilus influenzae [2]; H. influenzae MMX 5495): 0.25 µg/mL (≈ 0.715 µM) | MIC (Haemophilus influenzae [2]; H. influenzae MMX 5499): 0.25 µg/mL (≈ 0.715 µM)

CC[C@H]1OC(=O)[C@H](C)[C@@H](O[C@H]2C[C@@](C)(OC)[C@@H](O)[C@H](C)O2)[C@H](C)[C@@H](O[C@@H]2O[C@H](C)C[C@H](N(C)C)[C@H]2O)[C@](C)(O)C[C@@H](C)CN(C)[C@H](C)[C@@H](O)[C@]1(C)O [AZM]
CLSI Quality Control Range (MIC) (Haemophilus influenzae [1]; in µg/mL): 1-4 | MIC (Haemophilus influenzae [2]; H. influenzae MMX 0797, BLNAR): 2 µg/mL (≈ 2.67 µM) | MIC (Haemophilus influenzae [2]; [7]): 2 µg/mL (≈ 2.67 µM) | MIC (Haemophilus influenzae [2]; H. influenzae MMX 1302): 2 µg/mL (≈ 2.67 µM) | MIC (Haemophilus influenzae [2]; H. influenzae MMX 1304): 2 µg/mL (≈ 2.67 µM) | MIC (Haemophilus influenzae [2]; H. influenzae MMX 1740): 4 µg/mL (≈ 5.34 µM) | MIC (Haemophilus influenzae [2]; H. influenzae MMX 1741): 1 µg/mL (≈ 1.34 µM) | MIC (Haemophilus influenzae [2]; H. influenzae MMX 2795, BLNAR): 2 µg/mL (≈ 2.67 µM) | MIC (Haemophilus influenzae [2]; H. influenzae MMX 2796, BLNAR): 2 µg/mL (≈ 2.67 µM) | MIC (Haemophilus influenzae [2]; H. influenzae MMX 2798, BLNAR): 0.5 µg/mL (≈ 0.668 µM) | MIC (Haemophilus influenzae [2]; H. influenzae MMX 2799, BLNAR): 0.5 µg/mL (≈ 0.668 µM) | MIC (Haemophilus influenzae [2]; H. influenzae MMX 5458): 1 µg/mL (≈ 1.34 µM) | MIC (Haemophilus influenzae [2]; H. influenzae MMX 5461): 2 µg/mL (≈ 2.67 µM) | MIC (Haemophilus influenzae [2]; H. influenzae MMX 5469): 2 µg/mL (≈ 2.67 µM) | MIC (Haemophilus influenzae [2]; H. influenzae MMX 5494): 1 µg/mL (≈ 1.34 µM) | MIC (Haemophilus influenzae [2]; H. influenzae MMX 5495): 0.5 µg/mL (≈ 0.668 µM) | MIC (Haemophilus influenzae [2]; H. influenzae MMX 5499): 2 µg/mL (≈ 2.67 µM)

CCc1c(Cl)c(O)c(Cl)c(O)c1C(=O)O[C@H]1[C@H](O)[C@H](OC)[C@H](OC/C2=C\C=C\C[C@H](O)/C(C)=C/[C@H](CC)[C@@H](O[C@@H]3OC(C)(C)[C@@H](OC(=O)C(C)C)[C@H](O)[C@@H]3O)/C(C)=C/C(C)=C/C[C@@H]([C@@H](C)O)OC2=O)O[C@@H]1C [Fidaxomicin]
MIC [3, 8]: > 64 µg/mL | MIC [3, 9]: 0.25 µg/mL (≈ 0.236 µM) | MIC [3, 10]: 4 µg/mL (≈ 3.78 µM) | MIC [3, 11]: 0.5 µg/mL (≈ 0.473 µM) | MIC [3, 12]: 0.5 µg/mL (≈ 0.473 µM) | MIC [3, 13]: 0.5 µg/mL (≈ 0.473 µM) | MIC [3, 14]: 0.5 µg/mL (≈ 0.473 µM) | CLSI QC range of MIC [4, 15]: (0.06-0.25) μg/mL

C[C@@H](O)[C@H]1C(=O)N2C(C(=O)O)=C(SCCN=CN)C[C@H]12 [Imspenem]
CLSI acceptable MIC QC range [5]: 1 to 4 µg/mL | MIC ([6]; A. baumanuii CSC 0288, 0 percent Survanta): 16 µg/mL (≈ 53.4 µM) | MIC ([6]; A. baumanuii CSC 0288, 1 percent Survanta): 16 µg/mL (≈ 53.4 µM) | MIC ([6]; A. baumanuii CSC 0288, 2.5 percent Survanta): 16 µg/mL (≈ 53.4 µM) | MIC ([6]; A. baumanuii CSC 0288, 5 percent Survanta): 16 µg/mL (≈ 53.4 µM) | MIC ([6]; B. cepucia MMX9040, 0 percent Survanta): 8 µg/mL (≈ 26.7 µM) | MIC ([6]; B. cepucia MMX9040, 1 percent Survanta): 8 µg/mL (≈ 26.7 µM) | MIC ([6]; B. cepucia MMX9040, 2.5 percent Survanta): 8 µg/mL (≈ 26.7 µM) | MIC ([6]; B. cepucia MMX9040, 5 percent Survanta): 8 µg/mL (≈ 26.7 µM) | MIC ([6]; B. cepucia MMX9040, 10 percent Survanta): 8 µg/mL (≈ 26.7 µM) | MIC ([6]; H. Influenzae ATCC 49247, 0 percent Survanta): 0.5 µg/mL (≈ 1.67 µM) | MIC ([6]; H. Influenzae ATCC 49247, 1 percent Survanta): 0.5 µg/mL (≈ 1.67 µM) | MIC ([6]; H. Influenzae ATCC 49247, 2.5 percent Survanta): 0.5 µg/mL (≈ 1.67 µM) | MIC ([6]; H. Influenzae MMX 2795, 0 percent Survanta): 1 µg/mL (≈ 3.34 µM) | MIC ([6]; P. aeruginosa ATCC 27853, 0 percent Survanta): 2 µg/mL (≈ 6.68 µM) | MIC ([6]; P. aeruginosa ATCC 27853, 1 percent Survanta): 2 µg/mL (≈ 6.68 µM) | MIC ([6]; P. aeruginosa ATCC 27853, 2.5 percent Survanta): 2 µg/mL (≈ 6.68 µM) | MIC ([6]; P. aeruginosa ATCC 27853, 5 percent Survanta): 2 µg/mL (≈ 6.68 µM) | MIC ([6]; P. aeruginosa ATCC 27853, 10 percent Survanta): 2 µg/mL (≈ 6.68 µM) | MIC ([6]; P. aeruginosa CDC 0444, 0 percent Survanta): >16 µg/mL | MIC ([6]; P. aeruginosa CDC 0444, 1 percent Survanta): >16 µg/mL | MIC ([6]; P. aeruginosa CDC 0444, 2.5 percent Survanta): >16 µg/mL | MIC ([6]; P. aeruginosa CDC 0444, 5 percent Survanta): >16 µg/mL | MIC ([6]; P. aeruginosa CDC 0444, 10 percent Survanta): >16 µg/mL

C[C@H]1COc2c(N3CCN(C)CC3)c(F)cc3c(=O)c(C(=O)O)cn1c23 [LEV]
CLSI Quality Control Range (MIC) (Haemophilus influenzae [1]): (0.008-0.03) | MIC (Haemophilus influenzae [2]; H. influenzae MMX 0797, BLNAR): 0.015 µg/mL (≈ 0.0415 µM) | MIC (Haemophilus influenzae [2]; [7]): 0.015 µg/mL (≈ 0.0415 µM) | MIC (Haemophilus influenzae [2]; H. influenzae MMX 1302): 0.015 µg/mL (≈ 0.0415 µM) | MIC (Haemophilus influenzae [2]; H. influenzae MMX 1304): 0.015 µg/mL (≈ 0.0415 µM) | MIC (Haemophilus influenzae [2]; H. influenzae MMX 1740): 0.015 µg/mL (≈ 0.0415 µM) | MIC (Haemophilus influenzae [2]; H. influenzae MMX 1741): 0.015 µg/mL (≈ 0.0415 µM) | MIC (Haemophilus influenzae [2]; H. influenzae MMX 2795, BLNAR): 0.015 µg/mL (≈ 0.0415 µM) | MIC (Haemophilus influenzae [2]; H. influenzae MMX 2796, BLNAR): 0.015 µg/mL (≈ 0.0415 µM) | MIC (Haemophilus influenzae [2]; H. influenzae MMX 2798, BLNAR): 0.015 µg/mL (≈ 0.0415 µM) | MIC (Haemophilus influenzae [2]; H. influenzae MMX 2799, BLNAR): 0.015 µg/mL (≈ 0.0415 µM) | MIC (Haemophilus influenzae [2]; H. influenzae MMX 5458): 0.015 µg/mL (≈ 0.0415 µM) | MIC (Haemophilus influenzae [2]; H. influenzae MMX 5461): 0.03 µg/mL (≈ 0.083 µM) | MIC (Haemophilus influenzae [2]; H. influenzae MMX 5469): 0.015 µg/mL (≈ 0.0415 µM) | MIC (Haemophilus influenzae [2]; H. influenzae MMX 5494): 0.015 µg/mL (≈ 0.0415 µM) | MIC (Haemophilus influenzae [2]; H. influenzae MMX 5495): 0.015 µg/mL (≈ 0.0415 µM) | MIC (Haemophilus influenzae [2]; H. influenzae MMX 5499): 0.015 µg/mL (≈ 0.0415 µM)

Cc1ncc([N+](=O)[O-])n1CCO [Metronidazole]
MIC [3, 8]: 0.5 µg/mL (≈ 2.92 µM) | MIC [3, 9]: 0.5 µg/mL (≈ 2.92 µM) | MIC [3, 10]: > 64 µg/mL | MIC [3, 11]: 0.5 µg/mL (≈ 2.92 µM) | MIC [3, 12]: 0.5 µg/mL (≈ 2.92 µM) | MIC [3, 13]: 0.5 µg/mL (≈ 2.92 µM) | MIC [3, 14]: 8 µg/mL (≈ 46.7 µM) | CLSI QC range of MIC ([4]; B. fragilis MMX 123 (ATCC 25285)): (0.25-1) μg/mL | CLSI QC range of MIC [4, 15]: (0.12-0.5) μg/mL
